Data from patent US12037339B2, “Substituted imidazoles as GLP-1 receptor agonists” (Eccogene Inc., priority 2020, dated 2024).

molecular target: (Homo sapiens, UniProt P43220); assay: h-GLP-1 activity assay (cAMP HTRF, HEK293 cells with stable expression of human GLP-1); type: cell-based; conditions: relative EC50, 10 nM human GLP-1 set as 100% response, 30 min at 37° C.
Method: Human GLP-1 agonizing activity was detected in HEK293 cells with stable expression of human GLP-1 by Cisbio cAMP Gs dynamic kit (Catalog #62AM4PEC) according to manufacturer's protocol. Briefly, cells were collected and resuspended in assay buffer containing 0.1% BSA and 0.5 mM of IBMX at concentration to 2.5×10^5 cells/mL. Two μL 5× compound solution and 8 μL cell suspension were added to each well of low-volume 384 white assay plate. After 30 min incubation at 37° C., 5 μL cAMP-d2 working solution and 5 μL anti-cAMP antibody-cryptate were added to each well, and incubate at room temperature for 1 hr. Series dilution of cAMP was used as standard. Human GLP-1 (7-37) was used as positive control and 10 nM human GLP-1 was set as 100% response. HTRF signals were read at 665 and 615 nm with EnVision plate reader and calculated cAMP concentration by interpolation to the standard curve. The EC50 value of the tested compounds was calculated by fitting the dose response curve using a 4-parameter non-linear regression routine and relative EC50 was presented in Table 29.

(Homo sapiens, UniProt P43220), sequence (P43220 24-463): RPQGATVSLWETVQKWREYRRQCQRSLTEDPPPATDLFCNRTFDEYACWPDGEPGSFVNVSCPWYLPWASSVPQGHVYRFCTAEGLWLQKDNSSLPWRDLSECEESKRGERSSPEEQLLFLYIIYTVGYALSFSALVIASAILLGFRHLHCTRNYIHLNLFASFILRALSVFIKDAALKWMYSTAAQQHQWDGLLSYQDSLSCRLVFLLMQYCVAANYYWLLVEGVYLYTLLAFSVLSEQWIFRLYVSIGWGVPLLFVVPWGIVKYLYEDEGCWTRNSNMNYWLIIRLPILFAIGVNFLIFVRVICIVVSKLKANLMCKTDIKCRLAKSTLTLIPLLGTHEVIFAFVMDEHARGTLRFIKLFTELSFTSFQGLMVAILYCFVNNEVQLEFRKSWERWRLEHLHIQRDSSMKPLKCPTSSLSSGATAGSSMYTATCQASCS

| Compound | EC50 [nM] |
| --- | --- |
| CC1c2c(-n3ccn(-c4ccc5c(cnn5C)c4F)c3=O)c(-c3ccc(F)cc3)nn2CCN1C(=O)c1cn2cc(C3CCOCC3)ccc2c1C1(c2noc(=O)[nH]2)CC1 (racemic) [Compound 23, 3-(1-(2-(3-(3-(4-fluoro-1-methyl-1H-indazol-5-yl)-2-oxo-2,3-dihydro-1H-imidazol-1-yl)-2-(4-fluorophenyl)-4-methyl-4,5,6,7-tetrahydropyrazolo[1,5-a]pyrazine-5-carbonyl)-6-(tetrahydro-2H-pyran-4-yl)indolizin-1-yl)cyclopropyl)-1,2,4-oxadiazol-5(4H)-one] | 20 to 100 |
| Cc1cc(-n2nc3c(c2-n2ccn(-c4ccc5c(cnn5C)c4F)c2=O)[C@H](C)N(C(=O)c2cc4cc(C5CCOC(C)(C)C5)ccc4n2-c2cccc(-c4noc(=O)[nH]4)c2)CC3)cc(C)c1F (mixture of isomers) [Compound 30, 3-(3-(5-(2,2-dimethyltetrahydro-2H-pyran-4-yl)-2-((S)-3-(3-(4-fluoro-1-methyl-1H-indazol-5-yl)-2-oxo-2,3-dihydro-1H-imidazol-1-yl)-2-(4-fluoro-3,5-dimethylphenyl)-4-methyl-4,5,6,7-tetrahydro-2H-pyrazolo[4,3-c]pyridine-5-carbonyl)-1H-indol-1-yl)phenyl)-1,2,4-oxadiazol-5(4H)-one] | 20 to 100 |
| Cc1cc(-n2nc3c(c2-n2ccn(-c4ccc5c(cnn5C)c4F)c2=O)CN(C(=O)c2cc4cc(C5CCOC(C)(C)C5)ccc4n2Cc2cc(O)no2)CC3)cc(C)c1F (racemic) [Compound 36, 1-(5-(5-(2,2-dimethyltetrahydro-2H-pyran-4-yl)-1-((3-hydroxyisoxazol-5-yl)methyl)-1H-indole-2-carbonyl)-2-(4-fluoro-3,5-dimethylphenyl)-4,5,6,7-tetrahydro-2H-pyrazolo[4,3-c]pyridin-3-yl)-3-(4-fluoro-1-methyl-1H-indazol-5-yl)-1,3-dihydro-2H-imidazol-2-one] | > 100 |
| Cc1cc(-n2nc3c(c2-n2ccn(-c4ccc5c(cnn5C)c4F)c2=O)CN(C(=O)c2cc4cc(C5CCOC(C)(C)C5)ccc4n2Cc2cc(O)ns2)CC3)cc(C)c1F (racemic) [Compound 42, 1-(5-(5-(2,2-dimethyltetrahydro-2H-pyran-4-yl)-1-((3-hydroxyisothiazol-5-yl)methyl)-1H-indole-2-carbonyl)-2-(4-fluoro-3,5-dimethylphenyl)-4,5,6,7-tetrahydro-2H-pyrazolo[4,3-c]pyridin-3-yl)-3-(4-fluoro-1-methyl-1H-indazol-5-yl)-1,3-dihydro-2H-imidazol-2-one] | > 100 |
| C[C@H]1c2c(nn(-c3ccc(F)c(C4CC4)c3)c2-n2ccn(-c3ccc4c(cnn4C)c3F)c2=O)CCN1C(=O)c1nn2cc(C3CCOC(C)(C)C3)cnc2c1C1(c2noc(=O)[nH]2)CC1 (mixture of isomers) [Compound 103, 3-(1-(2-((S)-2-(3-cyclopropyl-4-fluorophenyl)-3-(3-(4-fluoro-1-methyl-1H-indazol-5-yl)-2-oxo-2,3-dihydro-1H-imidazol-1-yl)-4-methyl-4,5,6,7-tetrahydro-2H-pyrazolo[4,3-c]pyridine-5-carbonyl)-6-(2,2-dimethyltetrahydro-2H-pyran-4-yl)pyrazolo[1,5-a]pyrimidin-3-yl)cyclopropyl)-1,2,4-oxadiazol-5(4H)-one] | < 20 |
| Cc1cc(-n2nc3c(c2-n2ccn(-c4ccc5c(cnn5C)c4F)c2=O)[C@H](C)N(C(=O)c2cn4cc([C@@H]5CCOC(C)(C)C5)ccc4c2[C@@]2(c4noc(=O)[nH]4)C[C@@H]2C)CC3)cc(C)c1F (single isomer, unassigned) [Compound 3] | < 20 |
| Cc1cc(-n2nc3c(c2-n2ccn(-c4ccc5c(cnn5C)c4F)c2=O)[C@H](C)N(C(=O)c2cn4cc([C@H]5CCOC(C)(C)C5)ccc4c2[C@@]2(c4noc(=O)[nH]4)C[C@@H]2C)CC3)cc(C)c1F (single isomer, unassigned) [Compound 4] | 20 to 100 |
| Cc1cc(-n2nc3c(c2-n2ccn(-c4ccc5c(cnn5C)c4F)c2=O)[C@H](C)N(C(=O)c2cn4cc([C@H]5CCOC(C)(C)C5)ccc4c2[C@]2(c4noc(=O)[nH]4)C[C@@H]2C)CC3)cc(C)c1F (single isomer, unassigned) [Compound 5] | < 20 |

Results, then the compound that gave them:

| EC50 [nM] | Compound |
| --- | --- |
| > 100 | Cc1cc(-n2nc3c(c2-n2ccn(-c4ccc5c(cnn5C)c4F)c2=O)CN(C(=O)c2cc4cc(C5CCOC(C)(C)C5)ccc4n2Cc2nnc(O)s2)CC3)cc(C)c1F (racemic) [Compound 35, 1-(5-(5-(2,2-dimethyltetrahydro-2H-pyran-4-yl)-1-((5-hydroxy-1,3,4-thiadiazol-2-yl)methyl)-1H-indole-2-carbonyl)-2-(4-fluoro-3,5-dimethylphenyl)-4,5,6,7-tetrahydro-2H-pyrazolo[4,3-c]pyridin-3-yl)-3-(4-fluoro-1-methyl-1H-indazol-5-yl)-1,3-dihydro-2H-imidazol-2-one] |
| < 20 | Cc1cc(-n2nc3c(c2-n2ccn(-c4ccc5c(cnn5C)c4F)c2=O)[C@H](C)N(C(=O)c2cc4cc(C5CCOC(C)(C)C5)ccc4n2C2(c4nnc(O)s4)CC2)CC3)cc(C)c1F (mixture of isomers) [Compound 47, 1-((4S)-5-(5-(2,2-dimethyltetrahydro-2H-pyran-4-yl)-1-(1-(5-hydroxy-1,3,4-thiadiazol-2-yl)cyclopropyl)-1H-indole-2-carbonyl)-2-(4-fluoro-3,5-dimethylphenyl)-4-methyl-4,5,6,7-tetrahydro-2H-pyrazolo[4,3-c]pyridin-3-yl)-3-(4-fluoro-1-methyl-1H-indazol-5-yl)-1,3-dihydro-2H-imidazol-2-one] |
| < 20 | Cc1cc(-n2nc3c(c2-n2ccn(-c4ccc5c(cnn5C)c4F)c2=O)[C@H](C)N(C(=O)c2cc4cc(C5CCOC(C)(C)C5)ccc4n2C2(c4nc(O)ns4)CC2)CC3)cc(C)c1F (mixture of isomers) [Compound 48, 1-((4S)-5-(5-(2,2-dimethyltetrahydro-2H-pyran-4-yl)-1-(1-(3-hydroxy-1,2,4-thiadiazol-5-yl)cyclopropyl)-1H-indole-2-carbonyl)-2-(4-fluoro-3,5-dimethylphenyl)-4-methyl-4,5,6,7-tetrahydro-2H-pyrazolo[4,3-c]pyridin-3-yl)-3-(4-fluoro-1-methyl-1H-indazol-5-yl)-1,3-dihydro-2H-imidazol-2-one] |
| < 20 | Cc1cc(-n2nc3c(c2-n2ccn(-c4ccc5c(cnn5C)c4F)c2=O)[C@H](C)N(C(=O)c2cc4cc(C5CCOC(C)(C)C5)ccc4n2-c2ccccc2C(=O)O)CC3)cc(C)c1F (mixture of isomers) [Compound 54, 2-(5-(2,2-dimethyltetrahydro-2H-pyran-4-yl)-2-((S)-3-(3-(4-fluoro-1-methyl-1H-indazol-5-yl)-2-oxo-2,3-dihydro-1H-imidazol-1-yl)-2-(4-fluoro-3,5-dimethylphenyl)-4-methyl-4,5,6,7-tetrahydro-2H-pyrazolo[4,3-c]pyridine-5-carbonyl)-1H-indol-1-yl)benzoic acid] |
| > 100 | Cc1cc(-n2nc3c(c2-n2ccn(-c4ccc5c(cnn5C)c4F)c2=O)[C@H](C)N(C(=O)c2cc4cc(C5CCOC(C)(C)C5)ccc4n2C2(CNS(C)(=O)=O)CC2)CC3)cc(C)c1F (mixture of isomers) [Compound 64, N-((1-(5-(2,2-dimethyltetrahydro-2H-pyran-4-yl)-2-((S)-3-(3-(4-fluoro-1-methyl-1H-indazol-5-yl)-2-oxo-2,3-dihydro-1H-imidazol-1-yl)-2-(4-fluoro-3,5-dimethylphenyl)-4-methyl-4,5,6,7-tetrahydro-2H-pyrazolo[4,3-c]pyridine-5-carbonyl)-1H-indol-1-yl)cyclopropyl)methyl)methanesulfonamide] |
